# According to patent US12528815B2, “5-amino-8-(4-pyridyl)-[1,2,4]triazolo[4,3-c]pyrimidin-3-one compounds for use against cancer” (Nxera Pharma UK Limited, priority 2020, dated 2026):
# Tests used:
# human CB1 receptor = biological target: T1, human CB1 receptor (Homo sapiens, UniProt P21554); test: CB1 receptor antagonism, agonist-induced cAMP modulation (HTRF) in transfected CHO cells; assay type: cell-based; details: read-out: Antag IC50
# T1 construct: expressed in transfected cells; host or cells: CHO cells
# T1 sequence (P21554 whole entry): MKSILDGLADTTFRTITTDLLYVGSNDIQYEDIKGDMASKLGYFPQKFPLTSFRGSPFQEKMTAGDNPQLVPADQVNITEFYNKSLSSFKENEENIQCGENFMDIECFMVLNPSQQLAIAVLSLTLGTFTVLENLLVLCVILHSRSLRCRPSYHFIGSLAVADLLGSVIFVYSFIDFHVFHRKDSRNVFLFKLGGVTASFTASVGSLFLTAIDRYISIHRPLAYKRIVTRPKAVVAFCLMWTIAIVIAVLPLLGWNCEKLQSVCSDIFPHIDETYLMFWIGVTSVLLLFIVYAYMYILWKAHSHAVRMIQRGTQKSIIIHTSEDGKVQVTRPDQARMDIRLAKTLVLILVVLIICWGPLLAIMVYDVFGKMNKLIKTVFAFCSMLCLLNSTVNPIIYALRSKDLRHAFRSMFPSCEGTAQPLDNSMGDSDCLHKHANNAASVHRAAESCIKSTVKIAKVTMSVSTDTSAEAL
# Procedure: Receptor antagonism: Evaluation of the antagonist activity of compounds at the human CB1 receptor expressed in transfected CHO cells, determined by measuring their effects on agonist-induced cAMP modulation using the HTRF detection method.
# Thereafter, the reference agonist CP 55940 and the adenylyl cyclase activator NKH 477 are added at respective final concentrations of 3 nM and 3 μM.
# For basal control measurements, CP 55940 is omitted from the wells containing 3 μM AM 281.
# Following 20 min incubation at 37° C., the cells are lysed and the fluorescence acceptor (D2-labeled cAMP) and fluorescence donor (anti-cAMP antibody labeled with europium cryptate) are added.
# After 60 min at room temperature, the fluorescence transfer is measured at λex=337 nm and λem=620 and 665 nm using a microplate reader (Rubystar, BMG). The cAMP concentration is determined by dividing the signal measured at 665 nm by that measured at 620 nm (ratio).
# The standard reference antagonist is AM 281, which is tested in each experiment at several concentrations to generate a concentration-response curve from which its IC50 value is calculated.
# [1] = biological target: T2, human CB-1 cannabinoid receptor (Homo sapiens, UniProt P21554); test: CB1 receptor radioligand binding assay, [3H]CP 55940, transfected CHO cell membranes; details: 0.5 nM [3H]CP 55940, CHO membrane homogenates, 120 min at 37° C.
# T2 construct: expressed in transfected cells; host or cells: CHO cells
# T2 sequence (P21554 whole entry): as above
# Procedure: Nonspecific binding is determined in the presence of 10 μM WIN 55212-2.
# Following incubation, the samples are filtered rapidly under vacuum through glass fiber filters (GF/B, Packard) presoaked with 0.3% PEI and rinsed several times with an ice-cold buffer containing 50 mM Tris-HCl (pH 7.4) and 0.5% BSA using a 96-sample cell harvester (Unifilter, Packard). The filters are dried then counted for radioactivity in a scintillation counter (Topcount, Packard) using a scintillation cocktail (Microscint 0, Packard).
# The standard reference compound is CP 55940 which is tested in each experiment at several concentrations to obtain a competition curve from which its IC50 is calculated.
# [2] = biological target: T3, human adenosine A2A receptor (Homo sapiens, UniProt P29274); test: Inhibition binding assay, human adenosine A2A receptor membranes, [3H]ZM241385; details: 1 nM [3H]ZM241385, HEK293-hA2A membranes, 25° C., 1 h; IC50 converted to Ki with Cheng-Prusoff; read-out: A2A pKi (converted)
# T3 construct: expressed in transfected cells; host or cells: HEK293 cells infected with BacMam
# T3 sequence (P29274 whole entry): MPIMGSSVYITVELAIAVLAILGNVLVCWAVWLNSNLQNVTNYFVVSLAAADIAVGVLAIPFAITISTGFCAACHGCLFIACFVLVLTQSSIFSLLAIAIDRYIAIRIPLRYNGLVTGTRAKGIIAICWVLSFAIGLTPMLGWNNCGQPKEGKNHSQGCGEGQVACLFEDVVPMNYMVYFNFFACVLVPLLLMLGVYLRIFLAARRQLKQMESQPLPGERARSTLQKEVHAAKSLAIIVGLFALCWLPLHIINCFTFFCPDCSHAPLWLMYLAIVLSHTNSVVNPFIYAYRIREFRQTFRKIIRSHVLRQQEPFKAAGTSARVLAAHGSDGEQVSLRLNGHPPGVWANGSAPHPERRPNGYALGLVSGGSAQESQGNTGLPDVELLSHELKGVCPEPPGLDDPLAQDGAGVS
# Summary of the method: (§1)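 Membranes from BacMam-infected HEK293 cells (0.2 μg A2A, 1.4 μg A1) incubated 1 h at 25° C with test compound and 1 nM [3H]ZM241385 (A2A; 50 mM Tris-HCl pH 7.4) or [3H]DPCPX (A1; plus 100 mM NaCl, 10 mM MgCl2). Nonspecific: 1 μM CGS15943 or DPCPX. Filtration, scintillation; IC50 converted to Ki via Cheng-Prusoff.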
# [3] = biological target: T4, human adenosine A1 receptor (Homo sapiens, UniProt P30542); test: Inhibition binding assay, human adenosine A1 receptor membranes, [3H]DPCPX; details: 1 nM [3H]DPCPX, 25° C., 1 h; IC50 converted to Ki with Cheng-Prusoff; read-out: A1 pKi (converted)
# T4 construct: expressed in transfected cells; host or cells: HEK293 cells infected with BacMam (the same paragraph also labels the preparation CHO-hA1)
# T4 sequence (P30542 1-326): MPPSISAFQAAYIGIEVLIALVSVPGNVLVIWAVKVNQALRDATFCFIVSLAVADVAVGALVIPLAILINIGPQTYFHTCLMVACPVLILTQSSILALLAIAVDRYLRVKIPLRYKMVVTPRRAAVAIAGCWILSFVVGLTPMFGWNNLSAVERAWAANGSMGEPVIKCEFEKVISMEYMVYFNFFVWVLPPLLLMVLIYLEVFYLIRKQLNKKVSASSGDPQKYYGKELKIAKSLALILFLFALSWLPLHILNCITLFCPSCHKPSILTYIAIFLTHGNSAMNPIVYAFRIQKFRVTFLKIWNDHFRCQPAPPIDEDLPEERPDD
# Summary of the method: as §1
SMILES,IC50 (human CB1 receptor) [nM],Ki [1] [nM],Ki [2] [nM],Ki [3] [nM]
"Nc1nc(Cn2nc3c(-c4cc(Cl)nc(CO)c4)c(-c4ccccc4)nc(N)n3c2=O)ccc1F [Example 1-70, 5-amino-2-[(6-amino-5-fluoro-2-pyridyl)methyl]-8-[2-chloro-6-(hydroxymethyl)-4-pyridyl]-7-phenyl-[1,2,4]triazolo[4,3-c]pyrimidin-3-one]",> 100000,61300,0.316,50.1
"Cc1cc(-c2c(-c3ccccc3)nc(N)n3c(=O)n(CCc4ccccc4)nc23)cc(C)n1 [Example 1-80, 5-amino-8-(2,6-dimethyl-4-pyridyl)-7-phenyl-2-(2-phenylethyl)-[1,2,4]triazolo[4,3-c]pyrimidin-3-one]",10200,10800,2,126
"COc1cc(-c2c(-c3ccccc3)nc(N)n3c(=O)n(Cc4ccc(F)c(N)n4)nc23)cc(CO)n1 [Example 1-64, 5-amino-2-[(6-amino-5-fluoro-2-pyridyl)methyl]-8-[2-(hydroxymethyl)-6-methoxy-4-pyridyl]-7-phenyl-[1,2,4]triazolo[4,3-c]pyrimidin-3-one]",> 100000,23500,0.316,158
"Cc1cc(-c2c(-c3ccc(F)cc3)nc(N)n3c(=O)n(Cc4cccnn4)nc23)cc(C)n1 [Example 1-41, 5-amino-8-(2,6-dimethyl-4-pyridyl)-7-(4-fluorophenyl)-2-(pyridazin-3-ylmethyl)-[1,2,4]triazolo[4,3-c]pyrimidin-3-one]",43100,45600,2.51,398
"COc1cc(-c2c(-c3ccccc3)nc(N)n3c(=O)n(Cc4ccc(Cl)cn4)nc23)cc(CO)n1 [Example 1-65, 5-amino-2-[(5-chloro-2-pyridyl)methyl]-8-[2-(hydroxymethyl)-6-methoxy-4-pyridyl]-7-phenyl-[1,2,4]triazolo[4,3-c]pyrimidin-3-one]",9300,19900,0.794,794
"Cc1cc(-c2c(-c3ccccc3)nc(N)n3c(=O)n(Cc4ccc(F)cn4)nc23)cc(C)[n+]1[O-] [Example 1-42, 5-amino-8-(2,6-dimethyl-1-oxido-pyridin-1-ium-4-yl)-2-[(5-fluoro-2-pyridyl)methyl]-7-phenyl-[1,2,4]triazolo[4,3-c]pyrimidin-3-one]",> 100000,73400,15.8,251
"Cc1cc(-c2c(-c3ccccc3)nc(N)n3c(=O)n(C[C@@H]4COCCN4Cc4ccccc4)nc23)cc(C)n1 [Example 1-101, 5-amino-2-[[(3R)-4-benzylmorpholin-3-yl]methyl]-8-(2,6-dimethyl-4-pyridyl)-7-phenyl-[1,2,4]triazolo[4,3-c]pyrimidin-3-one]",2700,4000,0.631,10
"Cc1cc(-c2c(-c3ccccc3)nc(N)n3c(=O)n(Cc4ccc(F)cn4)nc23)cc(C)n1 [Example 1-2, 5-amino-8-(2,6-dimethyl-4-pyridyl)-2-[(5-fluoro-2-pyridyl)methyl]-7-phenyl-[1,2,4]triazolo[4,3-c]pyrimidin-3-one]",> 4900,20100,0.794,316
"COc1ncccc1Cn1nc2c(-c3cc(C)nc(CO)c3)c(-c3ccccc3)nc(N)n2c1=O [Example 1-57, 5-amino-8-[2-(hydroxymethyl)-6-methyl-4-pyridyl]-2-[(2-methoxy-3-pyridyl)methyl]-7-phenyl-[1,2,4]triazolo[4,3-c]pyrimidin-3-one]",> 100000,62600,0.631,126

# Results, then the compound that gave them:
IC50 (human CB1 receptor) [nM],Ki [1] [nM],Ki [2] [nM],Ki [3] [nM],SMILES
> 100000,75700,39.8,> 3160,"Cc1cc(-c2c(-c3ccc(F)cn3)nc(N)n3c(=O)n(CCC(F)(F)F)nc23)cc(C)n1 [Example 2-40, 5-amino-8-(2,6-dimethyl-4-pyridyl)-7-(5-fluoro-2-pyridyl)-2-(3,3,3-trifluoropropyl)-[1,2,4]triazolo[4,3-c]pyrimidin-3-one]"
3500,3900,0.398,100,"Cc1cc(-c2c(-c3ccccc3)nc(N)n3c(=O)n(CC4CCC(F)(F)C4)nc23)cc(C)n1 (centres unmarked) [Example 2-26, 5-amino-2-[(3,3-difluorocyclopentyl)methyl]-8-(2,6-dimethyl-4-pyridyl)-7-phenyl-[1,2,4]triazolo[4,3-c]pyrimidin-3-one]"
> 100000,85000,1.26,501,"Cc1cc(-c2c(-c3ccccc3)nc(N)n3c(=O)n(CCC(F)(F)F)nc23)cc(CO)n1 [Example 2-51, 5-amino-8-[2-(hydroxymethyl)-6-methyl-4-pyridyl]-7-phenyl-2-(3,3,3-trifluoropropyl)-[1,2,4]triazolo[4,3-c]pyrimidin-3-one]"
1100,8200,6.31,398,"Cc1cc(-c2c(-c3ccccc3)nc(N)n3c(=O)n(C4CCCN(C(=O)OC(C)(C)C)C4)nc23)cc(C)n1 (centres unmarked) [Example 2-54, tert-butyl 3-[5-amino-8-(2,6-dimethyl-4-pyridyl)-3-oxo-7-phenyl-[1,2,4]triazolo[4,3-c]pyrimidin-2-yl]piperidine-1-carboxylate]"
19500,26500,2.51,251,"Cc1cc(-c2c(-c3ccccc3)nc(N)n3c(=O)n(CCOC(F)(F)F)nc23)cc(C)n1 [Example 2-30, 5-amino-8-(2,6-dimethyl-4-pyridyl)-7-phenyl-2-[2-(trifluoromethoxy)ethyl]-[1,2,4]triazolo[4,3-c]pyrimidin-3-one]"
> 100000,61000,1,–,"COc1cc(-c2c(-c3ccccc3)nc(N)n3c(=O)n(CCC(F)(F)F)nc23)cc(CO)n1 [Example 2-46, 5-amino-8-[2-(hydroxymethyl)-6-methoxy-4-pyridyl]-7-phenyl-2-(3,3,3-trifluoropropyl)-[1,2,4]triazolo[4,3-c]pyrimidin-3-one]"
> 100000,–,7.94,200,"Cc1cc(-c2c(-c3ccccc3)nc(N)n3c(=O)n(C[C@@H]4COCCN4C)nc23)cc(C)n1 [Example 2-80, 5-amino-8-(2,6-dimethyl-4-pyridyl)-2-[[(3R)-4-methylmorpholin-3-yl]methyl]-7-phenyl-[1,2,4]triazolo[4,3-c]pyrimidin-3-one]"
> 100000,–,15.8,501,"CCOC(=O)N(C)CCn1nc2c(-c3cc(C)nc(C)c3)c(-c3ccccc3)nc(N)n2c1=O [Example 2-13, ethyl N-[2-[5-amino-8-(2,6-dimethyl-4-pyridyl)-3-oxo-7-phenyl-[1,2,4]triazolo[4,3-c]pyrimidin-2-yl]ethyl]-N-methyl-carbamate]"
–,18800,1.26,79.4,"COc1ccc(-c2nc(N)n3c(=O)n(CCC(F)(F)F)nc3c2-c2cc(C)nc(C)c2)cc1 [Example 2-35, 5-amino-8-(2,6-dimethyl-4-pyridyl)-7-(4-methoxyphenyl)-2-(3,3,3-trifluoropropyl)-[1,2,4]triazolo[4,3-c]pyrimidin-3-one]"
